Data: PubChem BioAssay (NCI)
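Method: 48-hour compound exposure of cells in 96-well plates, five concentrations, linear interpolation of endpoints. The concentration for 50% growth inhibition is given as GI50. Definition used: TGI = concentration required for complete inhibition of growth.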

Assays:
Experiment in all cases: growth of human tumour cells (NCI), 48 h
[1] = test system: A498 renal
[2] = test system: COLO 205 colon
[3] = test system: EKVX NSCLC
[4] = test system: HCC-2998 colon
[5] = test system: HOP-62 NSCLC
[6] = test system: MCF7 breast
[7] = test system: NCI-H23 lung
[8] = test system: NCI/ADR-RES ovarian
[9] = test system: OVCAR-8 ovarian
[10] = test system: SK-MEL-5 melanoma

| Compound | GI50 [1] | TGI [1] | GI50 [2] | TGI [2] | GI50 [3] | TGI [3] | GI50 [4] | TGI [4] | GI50 [5] | TGI [5] | GI50 [6] | TGI [6] | GI50 [7] | TGI [7] | GI50 [8] | TGI [8] | GI50 [9] | TGI [9] | GI50 [10] | TGI [10] |
| --- | --- | --- | --- | --- | --- | --- | --- | --- | --- | --- | --- | --- | --- | --- | --- | --- | --- | --- | --- | --- |
| NC(=O)C(=CNc1nc(-c2ccc(Cl)c(Cl)c2)cs1)C(N)=O | > 100 µM | > 100 µM | > 100 µM | > 100 µM | 43.8 µM | > 100 µM | > 100 µM | > 100 µM | > 100 µM | > 100 µM | 80 µM | > 100 µM | > 100 µM | > 100 µM | > 100 µM | > 100 µM | 80.7 µM | > 100 µM | 71.6 µM | > 100 µM |
| Cc1ccc(Nc2nc(N)c(C(=O)c3ccc(C#N)cc3)s2)cc1 | 0.37 µM | 23.1 µM | 0.279 µM | 6.64 µM | 0.573 µM | > 100 µM | 1.59 µM | > 53.9 µM | 0.503 µM | > 70.3 µM | 0.369 µM | > 100 µM | 0.743 µM | > 100 µM | 0.196 µM | 36.3 µM | 0.644 µM | > 100 µM | 0.32 µM | 10.7 µM |
| O=C(O)c1cc(O)c2c(c1)C(C1c3cc(C(=O)O)cc(O)c3C(=O)c3c(OC4OC(CO)C(O)C(O)C4O)cccc31)c1cccc(OC3OC(CO)C(O)C(O)C3O)c1C2=O (stereo not given) | > 100 µM | > 100 µM | > 100 µM | > 100 µM | > 100 µM | > 100 µM | > 100 µM | > 100 µM | > 100 µM | > 100 µM | > 100 µM | > 100 µM | > 100 µM | > 100 µM | > 100 µM | > 100 µM | > 100 µM | > 100 µM | > 100 µM | > 100 µM |
| Cc1n(Cc2ccc3ccccc3c2)cc[n+]1Cc1ccc2ccccc2c1 | 0.47 µM | 4.61 µM | 0.369 µM | 1.59 µM | 2.32 µM | 17.1 µM | 0.717 µM | 2.27 µM | 1.6 µM | 8.35 µM | 1.1 µM | 3.33 µM | 0.717 µM | 2.93 µM | 41.3 µM | > 100 µM | 1.21 µM | 10.3 µM | 0.628 µM | 1.87 µM |
| O=C(N/N=C\c1cc(Br)ccc1O)c1ccncc1 | 5.82 µM | 77.3 µM | 1.23 µM | 16.8 µM | 1.8 µM | 38.5 µM | 1.81 µM | > 100 µM | 1.57 µM | 66.2 µM | 1.55 µM | 7.25 µM | 3.61 µM | > 100 µM | 1.42 µM | 34.5 µM | 1.38 µM | > 100 µM | 2.6 µM | 21.8 µM |
| c1ccc2c3ccn4cc5c(cc4c-3nc2c1)CCCC5 | 11.6 µM | 24.1 µM | 2.37 µM | 6.16 µM | 3.88 µM | 19.5 µM | 4.3 µM | 15 µM | 3.5 µM | 13.1 µM | 2.5 µM | 11 µM | 3.13 µM | 14.7 µM | 55 µM | > 100 µM | 3.62 µM | 51.2 µM | 2.42 µM | 10.3 µM |
| O=c1[nH]c2cc(Cl)ccc2n1C1CCN(CCCC(c2ccc(F)cc2)c2ccc(F)cc2)CC1 | 1.34 µM | 2.74 µM | 1.23 µM | 2.6 µM | 1.45 µM | 3.38 µM | 1.87 µM | 3.49 µM | 1.55 µM | 3.05 µM | 1.35 µM | 2.84 µM | 1.74 µM | 3.43 µM | 1.74 µM | 3.61 µM | 1.69 µM | 3.56 µM | 1.55 µM | 2.89 µM |
| CN(C)Cc1c[nH]c2c1C(=O)c1c(c(O)c3ccccc3c1O)C2=O | 12.1 µM | 25.3 µM | 0.0386 µM | > 100 µM | 0.603 µM | 5.28 µM | 6.61 µM | 21.9 µM | 10.7 µM | 27.9 µM | 3.22 µM | 15.5 µM | 9.34 µM | 24.9 µM | 4.29 µM | 22.8 µM | 8.56 µM | 29.8 µM | 11.2 µM | 23.3 µM |
| C#C[C@]1(O)CC[C@H]2[C@@H]3CC=C4c5sc(Nc6ccccc6)nc5CC[C@]4(C)[C@H]3CC[C@@]21C | 1.34 µM | 3.66 µM | 2.18 µM | 5.39 µM | 2.83 µM | 13.8 µM | 1.91 µM | 4.22 µM | 2.19 µM | 10.7 µM | 1.57 µM | 4.28 µM | 2.37 µM | 13.1 µM | 2.15 µM | > 100 µM | 2.71 µM | 26.8 µM | 1.72 µM | 3.26 µM |
| COC(COC(=O)N1CCN(C=O)CC1)C1=C(N2CC2)C(=O)C(C)=C(N2CC2)C1=O (stereo not given) | – | 4.02 µM | – | 0.897 µM | – | 10.9 µM | – | 38.1 µM | – | 6.57 µM | – | 1.07 µM | – | 0.926 µM | – | 31.9 µM | – | 1.36 µM | – | 0.7 µM |
| COc1ccc(CNc2c3ccccc3nc3ccccc23)cc1OC | 1.97 µM | 4.8 µM | 1.32 µM | 3.82 µM | 2.7 µM | 12.4 µM | 2.28 µM | 8.76 µM | 2.96 µM | 13.3 µM | 2.24 µM | 6.66 µM | 2.13 µM | 7.47 µM | 1.75 µM | 6.61 µM | 2.17 µM | 12.1 µM | 1.87 µM | 3.64 µM |
| O=C(CN(C1CCCCC1)C1CCCCC1)Nc1ccc(S(=O)(=O)c2ccc(NC(=O)CN(C3CCCCC3)C3CCCCC3)cc2)cc1 | 11.4 µM | 27.9 µM | 0.28 µM | 0.841 µM | 1.41 µM | 2.88 µM | 1.7 µM | 3.22 µM | 1.2 µM | 3.56 µM | 0.299 µM | 1.62 µM | 1.02 µM | 2.61 µM | 0.89 µM | 6.31 µM | 0.701 µM | 3.71 µM | 0.395 µM | 1.65 µM |
